Experimental data reported in ChEMBL document CHEMBL1142867, “Antiviral activity of triazine analogues of 1-(S)-[3-hydroxy-2-(phosphonomethoxy)propyl]cytosine (cidofovir) and related compounds” (J Med Chem, 2007).
Values after ≈ are worked out from the molar mass of the structure shown.

How the values were obtained:
Punta Toro virus = format: functional, organism-based; conditions: Vero
[1] = Cytotoxicity against E6SM cells assessed as alteration in cell morphology; format: cell-based; conditions: human
[2] = Cytotoxicity against HeLa cells assessed as alteration in cell morphology; format: cell-based; conditions: human
[3] = Cytotoxicity against Vero cells assessed as alteration in cell morphology; format: cell-based; conditions: chlorocebus sabaeus
[4] = Cytotoxicity against C3H cells assessed as alteration in cell morphology; format: cell-based; conditions: mouse
[5] = Cytotoxicity against CEM cells assessed as reduction of cell growth; format: cell-based; conditions: human, CEM (CCRF-CEM) cells
Human alphaherpesvirus 1 [6] = format: functional, organism-based; conditions: Human alphaherpesvirus 1, KOS, HEL
Human alphaherpesvirus 1 [7] = format: functional, organism-based; conditions: Human alphaherpesvirus 1, KOS, HEL; remark: listed apart in the source
Human alphaherpesvirus 2 [8] = format: functional, organism-based; conditions: Human alphaherpesvirus 2, Lyons, HEL
Human alphaherpesvirus 2 [9] = format: functional, organism-based; conditions: Human alphaherpesvirus 2, G, HEL
Human alphaherpesvirus 3 [10] = assay: Antiviral activity against VZV OKA in HEL cells assessed as inhibition of plaque formation; format: functional, organism-based; conditions: Human alphaherpesvirus 3, OKA
Human alphaherpesvirus 3 [11] = assay: Antiviral activity against TK- VZV 07-1 in HEL cells assessed as inhibition of plaque formation; format: functional, organism-based; conditions: Human alphaherpesvirus 3, 07-1, HEL
Human betaherpesvirus 5 [12] = format: functional, organism-based; conditions: Human betaherpesvirus 5, AD169, HEL
Human betaherpesvirus 5 [13] = format: functional, organism-based; conditions: Human betaherpesvirus 5, Davis, HEL
Vaccinia virus = format: functional, organism-based; conditions: Orthopoxvirus vaccinia, Lederle, HEL
[14] = Cytotoxicity against HEL cells assessed as alteration in cell morphology after 3 days; format: cell-based; conditions: human, read-out: Activity
HEL = assay: Cytotoxicity against HEL cells assessed as inhibition of cell growth after 3 days; format: cell-based; conditions: human, 72 h
[15] = tested on: Human immunodeficiency virus 1; format: functional, organism-based; conditions: Human immunodeficiency virus 1, 3B, CCRF-CEM
[16] = tested on: Human immunodeficiency virus 2; format: functional, organism-based; conditions: Human immunodeficiency virus 2, ROD, CCRF-CEM
[17] = tested on: Moloney murine sarcoma virus; assay: Antiviral activity against MSV in mouse C3H cells assessed as inhibition of virus-induced transformation after 6 days; format: functional, organism-based; conditions: 144 h
Coxsackievirus B4 [18] = format: functional, organism-based; conditions: Enterovirus B, HeLa
Coxsackievirus B4 [19] = format: functional, organism-based; conditions: Enterovirus B, Vero
[20] = tested on: Respiratory syncytial virus; format: functional, organism-based; conditions: human respiratory syncytial virus, Long, HeLa
Human respirovirus 3 = format: functional, organism-based; conditions: Human respirovirus 3, Vero
[21] = tested on: Mammalian orthoreovirus 1; format: functional, organism-based; conditions: Mammalian orthoreovirus 1, Vero
Sindbis virus = format: functional, organism-based; conditions: Vero
[22] = tested on: Vesicular stomatitis virus; assay: microbe, parasite or virus in culture; conditions: E6SM
[23] = tested on: Vesicular stomatitis virus; assay: microbe, parasite or virus in culture; conditions: HeLa
Human adenovirus 2 = format: functional, organism-based; conditions: Human mastadenovirus C, HEL
[24] = Cytotoxicity against HSB2 cells assessed as alteration in cell morphology; format: cell-based, CCRF-HSB-2; conditions: human, read-out: Activity
[25] = Cytotoxicity against Huh5-2 cells assessed as reduction of cell growth; format: cell-based, Huh-5-2; conditions: human

Compound	EC50 (Punta Toro virus)	MCC [1]	MCC [2]	MCC [3]	MCC [4]	CC50 [5]	EC50 (Human alphaherpesvirus 1 [6])	EC50 (Human alphaherpesvirus 1 [7])	EC50 (Human alphaherpesvirus 2 [8])	EC50 (Human alphaherpesvirus 2 [9])	EC50 (Human alphaherpesvirus 3 [10])	EC50 (Human alphaherpesvirus 3 [11])	EC50 (Human betaherpesvirus 5 [12])	EC50 (Human betaherpesvirus 5 [13])	EC50 (Vaccinia virus)	MCC at 72 h [14]	Activity (HEL)	EC50 [15]	EC50 [16]	EC50 [17]	other results
Nc1ncn(C[C@H](O)CO)c(=O)n1	> 100 µg/mL	> 100 µg/mL	> 100 µg/mL	> 100 µg/mL	> 100 µg/mL	> 100 µg/mL	> 100 µg/mL	> 100 µg/mL	> 100 µg/mL	> 100 µg/mL	> 100 µg/mL	> 100 µg/mL	> 100 µg/mL	> 100 µg/mL	> 100 µg/mL	> 100 µg/mL	> 100 µg/mL	> 100 µg/mL	> 100 µg/mL	> 100 µg/mL	EC50 (Coxsackievirus B4 [18]): > 100 µg/mL; EC50 (Coxsackievirus B4 [19]): > 100 µg/mL; EC50 [20]: > 100 µg/mL; EC50 (Human respirovirus 3): > 100 µg/mL; EC50 [21]: > 100 µg/mL; EC50 (Sindbis virus): > 100 µg/mL; EC50 [22]: > 100 µg/mL; EC50 [23]: > 100 µg/mL
NC(=NC(=O)NC[C@@H](CO)OCP(=O)(O)O)NC=O	> 100 µg/mL	> 100 µg/mL	> 100 µg/mL	> 100 µg/mL	> 100 µg/mL	≥ 100 µg/mL	1.35 µg/mL (≈ 4.53 µM)	2.85 µg/mL (≈ 9.56 µM)	3.16 µg/mL (≈ 10.6 µM)	6.58 µg/mL (≈ 22.1 µM)	0.042 µg/mL (≈ 0.141 µM)	0.046 µg/mL (≈ 0.154 µM)	0.1 µg/mL (≈ 0.335 µM)	0.12 µg/mL (≈ 0.402 µM)	8.35 µg/mL (≈ 28 µM)	> 50 µg/mL	> 50 µg/mL	> 100 µg/mL	> 100 µg/mL	130 µg/mL (≈ 436 µM)	EC50 (Human adenovirus 2): 17.8 µg/mL (≈ 59.7 µM); MCC [24]: ≥ 200 µg/mL; EC50 (Coxsackievirus B4 [18]): > 100 µg/mL; EC50 (Coxsackievirus B4 [19]): > 100 µg/mL; EC50 [20]: > 100 µg/mL; EC50 (Human respirovirus 3): > 100 µg/mL; EC50 [21]: > 100 µg/mL; EC50 (Sindbis virus): > 100 µg/mL; EC50 [22]: > 100 µg/mL; EC50 [23]: > 100 µg/mL
Nc1ncn(C[C@H](CO)OCP(=O)(O)O)c(=O)n1	> 200 µg/mL	> 200 µg/mL	> 200 µg/mL	> 200 µg/mL	> 100 µg/mL	> 100 µg/mL	11.8 µg/mL (≈ 42.1 µM)	17.8 µg/mL (≈ 63.5 µM)	14.8 µg/mL (≈ 52.8 µM)	12.6 µg/mL (≈ 45 µM)	13.8 µg/mL (≈ 49.3 µM)		7.3 µg/mL (≈ 26.1 µM)	8.9 µg/mL (≈ 31.8 µM)	≥ 81.6 µg/mL	> 100 µg/mL	> 100 µg/mL	> 100 µg/mL	> 100 µg/mL	> 100 µg/mL	CC50 [25]: > 50 µg/mL; EC50 (Coxsackievirus B4 [18]): > 200 µg/mL; EC50 (Coxsackievirus B4 [19]): > 200 µg/mL; EC50 [20]: > 200 µg/mL; EC50 (Human respirovirus 3): > 200 µg/mL; EC50 [21]: > 200 µg/mL; EC50 (Sindbis virus): > 200 µg/mL; EC50 [22]: > 200 µg/mL; EC50 [23]: > 200 µg/mL
Nc1ccn(C[C@@H](CO)OCP(=O)(O)O)c(=O)n1.O.O [CIDOFOVIR]							0.09 µg/mL	0.38 µg/mL	0.43 µg/mL	0.35 µg/mL	0.077 µg/mL	0.073 µg/mL	0.2 µg/mL	0.3 µg/mL	2.6 µg/mL	> 100 µg/mL	60.9 µg/mL				EC50 (Human adenovirus 2): 1.53 µg/mL; MCC [24]: 37 µg/mL
